A word on the IC50: it is the concentration that inhibits the measured activity by half. As a reminder, the melting point is the temperature, or range, at which the solid turns liquid.

This note sets out measurements from PMC9959349, “Discovery of the 3-Amino-1,2,4-triazine-Based Library as Selective PDK1 Inhibitors with Therapeutic Potential in Highly Aggressive Pancreatic Ductal Adenocarcinoma” (International Journal of Molecular Sciences, 2023).

Data set [1] deals with BxPC-3 cells. Put plainly: 3D spheroid cytotoxicity, acid phosphatase (APH) assay, BxPC-3. To be noted: read-out: IC50 ±S.D. BxPC-3 (3D cytotoxicity); spheroids, 72 h, APH test.
Experimental: The PDAC cancer spheroids were treated with tested compounds for 72 h, and cell viability was assessed by means of the acid phosphatase (APH) assay (Table 3).
An APH-modified assay was used for determining cell viability in 3D spheroids, as previously described [61]. Briefly, the pre-seeded spheroids were treated with fresh medium containing the compound to be studied at the appropriate concentration (range 2.5–200 μM). Triplicate cultures were established for each treatment. After 72 h, each well was treated with 100 μL of the assay buffer (0.1 M sodium acetate, 0.1% Triton-X-100, supplemented with ImmunoPure p-nitrophenyl phosphate; Sigma Chemical Co., Ltd.) and, following 3 h of incubation, 10 μL of 1 M NaOH solution was added. […] The mean absorbance for each drug dose was expressed as a percentage of the control untreated well absorbance (T/C) and plotted vs. drug concentration. […] The evaluation was based on means from at least four independent experiments.
Data set [2] deals with PSN-1 cells. Nature of the data set: 3D spheroid cytotoxicity, acid phosphatase (APH) assay, PSN-1. To be noted: read-out: IC50 ±S.D. PSN-1 (3D cytotoxicity); spheroids, 72 h, APH test.
Data set [3] deals with PSN-1 cells. Nature of the data set: 2D cytotoxicity, MTT assay, PSN-1. The settings on record: Homo sapiens, PSN1, 72 h, read-out: IC50 ±S.D. PSN-1 (2D cytotoxicity). The data set is classed as cell-based. Here is the method: (§1) All newly synthesized compounds were then screened for their cytotoxic activity against two human PDAC cell lines, namely a KRAS-wild-type PDAC cell line (BxPC-3 cells) and a KRAS-mutant PDAC cell line (PSN-1 cells). […] The cytotoxicity parameters, expressed in terms of IC50 and obtained after 72 h of drug exposure by MTT assay, are listed in the Supplementary Materials (Table S2).
(§2) The growth inhibitory effect on tumor cells was evaluated by means of the MTT assay. Briefly, 3–8 × 10^3 cells/well, dependent upon the growth characteristics of the cell line, were seeded in 96-well microplates in growth medium (100 μL). After 24 h, the medium was removed and replaced with a fresh one containing the compound to be studied at the appropriate concentration. Triplicate cultures were established for each treatment. After 72 h, each well was treated with 10 μL of a 5 mg/mL MTT saline solution, and following 5 h of incubation, 100 μL of a sodium dodecyl sulfate (SDS) solution in HCl 0.01 M was added. After overnight incubation, cell growth inhibition was detected by measuring the absorbance of each well at 570 nm using a Bio-Rad 680 microplate reader. The mean absorbance for each drug dose was expressed as a percentage of the control untreated well absorbance and plotted vs. drug concentration. IC50 values, the drug concentrations that reduce the mean absorbance at 570 nm to 50% of those in the untreated control wells, were calculated by the four-parameter logistic (4-PL) model. The evaluation was based on means from at least four independent experiments.
(Formazan colour is commonly taken as a measure of viable cells.)

For data set [4], the system named is BxPC-3 cells. Put plainly: 2D cytotoxicity, MTT assay, BxPC-3. The data set is classed as cell-based. The settings on record: Homo sapiens, BXPC-3, 72 h, read-out: IC50 ±S.D. BxPC-3 (2D cytotoxicity). How it is done: as §1, §2
Data set [5] deals with murine Lewis Lung Carcinoma (LLC). Put plainly: In vivo anticancer activity, LLC solid tumor model. To be noted: LLC-bearing C57BL mice, daily dosing days 7-14, evaluated day 15; 5i 20 mg kg−1 i.p., gemcitabine 60 mg kg−1, cisplatin 3 mg kg−1.
Text: Seven days after tumor inoculation the tumor-bearing mice were randomized into vehicle control and treatment groups.
The LLC was implanted intramuscularly (i.m.) as a 2 × 10^6 cell inoculum into the right hind leg of 8-week-old male and female C57BL mice (24 ± 3 g body weight). After 7 days from tumor implantation (visible tumors), mice were randomly divided into 4 groups (8 animals per group) and subjected to daily i.p. administration. […] At day 15, animals were sacrificed, the legs were amputated at the proximal end of the femur, and the inhibition of tumor growth was determined from the difference in the weights of the tumor-bearing leg and the healthy leg of the animals, expressed as a percentage referenced to the control animals. Body weight was measured at day 0 and from day 7 onwards every 2 days and was taken as a parameter for systemic toxicity. All presented values are the means ± SD of no less than three measurements.
Data set [6] can be described thus: Body weight changes of LLC-bearing mice. The data set is classed as in vivo. The settings on record: LLC-bearing C57BL mice, daily dosing; gemcitabine 60 mg kg−1, cisplatin 3 mg kg−1.
In another data set the target is recombinant human PDK1 (Homo sapiens, UniProt Q15118). Nature of the data set: ADP-Glo kinase assay, PDK1.
A further data set deals with recombinant human HSP90 (Homo sapiens, UniProt P07900). Nature of the data set: HSP90 inhibition assay (Transcreener ADP kit). The data set is classed as biochemical. Here is the method:
The in vitro inhibitory activity of tested compounds on recombinant human HSP90 was assessed by The Transcreener™ ADP kit (Bellbrook Labs) according to the manufacturer’s protocol. Human recombinant HSP90 protein was incubated with tested compounds in the presence of 250 μM ATP at 37 °C for 30 min, 4°C for 30 min and ATPase activity was stopped via the addition of the stop and detect buffer. Following this, samples were incubated for 1 h at room temperature with the ADP2 Antibody and the ADP Alexa594 Tracer. The fluorescence intensity polarization of samples was measured with a Tecan plate reader (Tecan Infinite® M200). The evaluation was based on means from at least three independent experiments.

Where [7] appears, read: 72 h, MTT test, KRAS-mutant PSN-1.
Setting [8] is: 72 h, MTT test, KRAS-wild-type BxPC-3.

Structures can show the parent of a compound that is named as a salt. Some results are limits rather than exact numbers.

Chain of recombinant human PDK1 (Q15118 29-436): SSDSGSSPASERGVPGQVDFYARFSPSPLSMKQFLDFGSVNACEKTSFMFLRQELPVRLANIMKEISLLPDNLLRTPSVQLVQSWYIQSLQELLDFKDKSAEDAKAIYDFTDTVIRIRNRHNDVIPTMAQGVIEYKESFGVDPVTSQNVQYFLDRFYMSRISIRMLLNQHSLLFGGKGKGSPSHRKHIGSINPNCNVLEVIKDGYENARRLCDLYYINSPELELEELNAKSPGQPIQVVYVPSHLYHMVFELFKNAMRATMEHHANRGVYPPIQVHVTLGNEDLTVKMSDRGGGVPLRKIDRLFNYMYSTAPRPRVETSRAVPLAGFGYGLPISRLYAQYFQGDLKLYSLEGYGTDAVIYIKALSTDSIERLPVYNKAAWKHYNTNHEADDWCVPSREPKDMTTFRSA
Experimental for recombinant human PDK1: The ability of tested compounds to inhibit the activity of PDK 1–4 isoforms was primarily assessed in cell-free experiments by a chemioluminescent assay, the ADPGlo™ Kinase Assay kit from Promega (Promega Corporation, Madison, WI, USA).
The in vitro inhibitory activity of tested compounds on recombinant human PDK1-4 isoforms (Abcam, Cambridge, MA, USA) was evaluated by using the ADPGlo™ Kinase Assay kit from Promega (Promega Corporation, Madison, WI, USA) following the instructions of the manufacturer. […] The reaction was then started by the addition of substrate/ATP for 60 min at room temperature. Subsequently, ADP-Glo™ reagent was added and incubated for 40 min prior to kinase detection reagent addition. After 30 min, the luminescence was measured with a Tecan plate reader (Tecan Infinite® M200). Raw data were normalized to the values of control wells and luminescence values for each drug dose were expressed as a percentage of the luminescence of control untreated wells. […] The evaluation was based on means from at least three independent experiments.

Regarding `O=C(O)C(Cl)Cl` [DCA, Dichloroacetic acid, reference compound], the IC50 with BxPC-3 cells [1] and in the data set with PSN-1 cells [2] was greater than 1000 µM throughout.

Compound `Cn1cc(-c2nc(N)nnc2-c2c[nH]c3ccc(F)cc23)c2cc(F)ccc21` [6u] had a melting point of 259.5 °C.

`Cn1cc(-c2nc(N)nnc2-c2c[nH]c3ccccc23)c2cc(Br)ccc21` [5o] gave a melting point of 271 °C. In addition, in the data set on PSN-1 cells [3] (setting [7]), the IC50 is 0.5 ± 0.1 µM. The IC50 in the data set with BxPC-3 cells [4] (setting [8]) was 0.2 ± 0.03 µM.

Regarding `Cn1cc(-c2nc(N)nnc2-c2c[nH]c3ccccc23)c2ccccc21` [5m], the melting point was determined as 246.6 °C.

`COc1ccc2[nH]cc(-c3nc(N)nnc3-c3cn(C)c4ccccc34)c2c1` [6z] registered a melting point of 243.3 °C.

On to `COc1ccc2c(c1)c(-c1nc(N)nnc1-c1c[nH]c3ccccc13)cn2C` [5p], for which the melting point was 288.4 °C.

Turning to `COc1ccc2c(c1)c(-c1nnc(N)nc1-c1c[nH]c3ccccc13)cn2C` [6p], the melting point amounted to 279.6 °C.

In turn, `COc1ccc2[nH]cc(-c3nnc(N)nc3-c3cn(C)c4ccc(OC)cc34)c2c1` [5y] displayed a melting point of 205.5 °C.

Turning to `Cn1cc(-c2nnc(N)nc2-c2c[nH]c3ccccc23)c2ccccc21` [6m], the melting point came out at 311.3 °C.

The compound `Cn1cc(-c2nnc(N)nc2-c2c[nH]c3ccccc23)c2cc(Br)ccc21` [6o] yielded a melting point of 291 °C. For the same compound, the IC50 with PSN-1 cells [3] (setting [7]) was 0.4 ± 0.04 µM. Besides, in the data set on BxPC-3 cells [4] (setting [8]), the IC50 stood at 0.3 ± 0.03 µM.

With `COc1ccc2[nH]cc(-c3nc(N)nnc3-c3cn(C)c4ccc(Br)cc34)c2c1` [6aa], the melting point is 241.8 °C.

The compound `COc1ccc2c(c1)c(-c1nnc(N)nc1-c1cn(C)c3ccc(F)cc13)cn2C` [6k] registered a melting point of 251.2 °C. Further, the IC50 with BxPC-3 cells [1] turned out to be 22.3 ± 2.6 µM. In the data set on PSN-1 cells [2], the IC50 stood at 9.4 ± 0.2 µM.

In the case of `Nc1ccn([C@@H]2O[C@H](CO)[C@@H](O)C2(F)F)c(=O)n1` [Gemcitabine, gemcitabine hydrochloride, reference compound], in data set [5], the “reduction in tumor growth compared to the control group” value is reported as “about 80%”. For the same compound, the IC50 in the data set on PSN-1 cells [3] (setting [7]) amounted to 0.1 ± 0.04 µM; in the data set with BxPC-3 cells [1], 103 ± 6.3 µM; in the data set on BxPC-3 cells [4] (setting [8]) it was 0.02 ± 0.003 µM; in the data set with PSN-1 cells [2], 160 ± 5.6 µM. Besides, the body weight loss in data set [6] is reported as ~ 20%.

In turn, `Cn1cc(-c2nnc(N)nc2-c2c[nH]c3ccc(F)cc23)c2cc(Br)ccc21` [6x] registered a melting point of 270.2 °C. Besides, the IC50 with PSN-1 cells [3] (setting [7]) was found to be 0.3 ± 0.04 µM. For the same compound, the IC50 in the data set on BxPC-3 cells [4] (setting [8]) worked out at 0.3 ± 0.1 µM.

`Cn1cc(-c2nc(N)nnc2-c2c[nH]c3ccccc23)c2cc(F)ccc21` [5n] had a melting point of 254.3 °C.

`COc1ccc2[nH]cc(-c3nnc(N)nc3-c3cn(C)c4ccc(Br)cc34)c2c1` [5aa]: the melting point was 267.8 °C.

Take `O=C(c1ccccc1)C(Cl)Cl` [DAP, 2,2-dichloroacetophenone, reference compound]: the IC50 was 10.2 ± 1.6 µM with PSN-1 cells [3]; 87.4 ± 8.9 µM in the data set with BxPC-3 cells [1]; greater than 100 µM on recombinant human PDK1; 1.06 ± 0.9 µM in the data set on BxPC-3 cells [4]; 78.2 ± 6.8 µM in the data set with PSN-1 cells [2].

`Nc1nnc(-c2c[nH]c3ccc(F)cc23)c(-c2c[nH]c3ccc(F)cc23)n1` [5c] gave a melting point of 178.1 °C.

`Cn1cc(-c2nnc(N)nc2-c2c[nH]c3ccc(Br)cc23)c2cc(F)ccc21` [6t] yielded a melting point of 314.3 °C.

Compound `Cn1cc(-c2nnc(N)nc2-c2c[nH]c3ccc(Br)cc23)c2cc(Br)ccc21` [6r] registered a melting point of 282.4 °C.

Compound `Cn1cc(-c2nc(N)nnc2-c2c[nH]c3ccc(Br)cc23)c2cc(F)ccc21` [5t] gave a melting point of 266.9 °C. Moreover, the IC50 in the data set on PSN-1 cells [3] (setting [7]) was determined as 0.4 ± 0.1 µM. For the same compound, the IC50 with BxPC-3 cells [4] (setting [8]) turned out to be 1.4 ± 0.2 µM.

In turn, `Cn1cc(-c2nc(N)nnc2-c2c[nH]c3ccc(F)cc23)c2ccccc21` [5v] returned a melting point of 285.9 °C. The IC50 in the data set on PSN-1 cells [3] (setting [7]) was determined as 0.2 ± 0.04 µM. In the data set on BxPC-3 cells [4] (setting [8]), the IC50 was 0.2 ± 0.03 µM.

In turn, `COc1ccc2[nH]cc(-c3nnc(N)nc3-c3cn(C)c4ccccc34)c2c1` [5z] returned a melting point of 249.4 °C.

As to `Cn1cc(-c2nnc(N)nc2-c2cn(C)c3ccccc23)c2ccccc21` [5e], the melting point stood at 274.4 °C.

Regarding `Nc1nnc(-c2c[nH]c3ccccc23)c(-c2c[nH]c3ccccc23)n1` [5a], the melting point stood at 288.2 °C.

`N.N.[Cl][Pt][Cl]` [cisplatin]: the “reduction in tumor growth compared to the control group” value in [5] is ~ 84%. For the same compound, in data set [6], the body weight loss was ~ 20%.

`Nc1nnc(-c2c[nH]c3ccc(Br)cc23)c(-c2c[nH]c3ccc(Br)cc23)n1` [5d] had a melting point of 208.2 °C. In addition, the IC50 in the data set on PSN-1 cells [3] (setting [7]) worked out at 0.3 ± 0.04 µM. In the data set with BxPC-3 cells [4] (setting [8]), the IC50 was 0.4 ± 0.1 µM.

`Cn1cc(-c2nc(N)nnc2-c2c[nH]c3ccc(F)cc23)c2cc(Br)ccc21` [5x] yielded a melting point of 267.6 °C. The IC50 with PSN-1 cells [3] (setting [7]) was 0.3 ± 0.1 µM. The IC50 at recombinant human HSP90 is greater than 1.5 µM. Moreover, the IC50 at recombinant human PDK1 was found to be 0.7 µM. In addition, the IC50 in the data set on BxPC-3 cells [4] (setting [8]) was determined as 0.2 ± 0.04 µM.

In turn, `Cn1cc(-c2nc(N)nnc2-c2c[nH]c3ccc(Br)cc23)c2cc(Br)ccc21` [5r] came in with a melting point of 239 °C.

As to `Cn1cc(-c2nnc(N)nc2-c2cn(C)c3ccc(Br)cc23)c2ccccc21` [5j], the melting point is 257.3 °C. Moreover, the IC50 in the data set with PSN-1 cells [3] (setting [7]) came to 0.4 ± 0.1 µM. In addition, the IC50 in the data set on BxPC-3 cells [1] was 16.7 ± 2 µM. In addition, in the data set with BxPC-3 cells [4] (setting [8]), the IC50 worked out at 0.1 ± 0.04 µM. For the same compound, the IC50 in the data set with PSN-1 cells [2] came out at 10.4 ± 1.6 µM.

`Cn1cc(-c2nnc(N)nc2-c2c[nH]c3ccc(F)cc23)c2ccccc21` [6v] returned a melting point of 295.8 °C. For the same compound, in the data set with PSN-1 cells [3] (setting [7]), the IC50 is 0.2 ± 0.03 µM. Further, in the data set with BxPC-3 cells [4] (setting [8]), the IC50 is 0.1 ± 0.02 µM.

`Cn1cc(-c2nnc(N)nc2-c2cn(C)c3ccc(F)cc23)c2cc(F)ccc21` [5g]: the melting point turned out to be 236.5 °C. Moreover, in the data set on BxPC-3 cells [1], the IC50 was determined as 19.5 ± 2.1 µM. Besides, the IC50 in the data set with PSN-1 cells [2] stood at 5.8 ± 0.8 µM.

Compound `COc1ccc2[nH]cc(-c3nc(N)nnc3-c3cn(C)c4ccc(OC)cc34)c2c1` [6y] registered a melting point of 263.3 °C. For the same compound, the IC50 in the data set on PSN-1 cells [3] (setting [7]) amounted to 0.6 ± 0.04 µM. The IC50 in the data set on BxPC-3 cells [4] (setting [8]) is 0.3 ± 0.1 µM.

Compound `COc1ccc2c(c1)c(-c1nnc(N)nc1-c1cn(C)c3ccc(OC)cc13)cn2C` [5f] had a melting point of 199.5 °C.
